≈ marks a conversion by molar mass, not a printed value. One block for each compound: values may come before it. Numbered stars: 1 amine (or outer) side, 2 acyl side, 3 side chain; on linkers, the order of the positions; unused ones are H or OH. Square brackets hold non-standard residues; d marks the D form. Peptide text beside a SMILES is read from it. * marks the point of attachment. ξ: configuration not given here. X1 = N=C1NCC(C(O)C(N[*:1])C(=O)[*:2])N1C1OC(CO)C(O)C(O)C1O; ξEnduracididine(βξ-OH,4'ξ) = N=C1NCC(C(O)C(N)C(=O)O)N1; X2 = OCC1OC(OC2C(CO)OC(*)C(O)C2O)C(O)C(O)C1O; ξCha(3ξ-Me) = CC(C1CCCCC1)C(N)C(=O)O; Cha = N[CH](CC1CCCCC1)C(=O)O
Columns and labels:
Assay in all cases: In vitro antibacterial evaluation: minimum inhibitory concentration (MIC), broth dilution method
Format in all cases: cell-based
Escherichia coli = conditions: broth dilution, 18 hours at 35° C.
Staphylococcus sp. = conditions: broth dilution, 18 hours at 35° C.; for MIC Staphylococcus aureus-SMITH (GC 4543): strain SMITH GC 4543
Procedure, shortened: (§1)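 Test strains, among them recent clinical isolates carrying methicillin, penicillin and/or vancomycin resistance, were inoculated at 5×10^5 CFU/mL. A broth dilution series spanning 64-0.06 μg/mL in Muller-Hinton II […] (NCCLS M7-A2) defined the MIC as the lowest growth-inhibiting concentration.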

Enterococcus sp. = conditions: broth dilution, 18 hours at 35° C.
Procedure, shortened: as §1

Streptococcus sp. = conditions: broth dilution, 18 hours at 35° C.
Procedure, shortened: as §1

[1] = Enterococcus faecalis (GC 2242)
[2] = Enterococcus faecalis (GC 2691)
[3] = Enterococcus faecalis (GC 3059)
[4] = Streptococcus agalactiae (GC 4564)
[5] = Streptococcus pneumoniae (ATCC 6301)
[6] = Streptococcus pneumoniae (GC 1894)
[7] = Streptococcus pneumoniae (GC 4565)
[8] = Streptococcus pyogenes (GC 4563)

- MIC Escherichia coli (ATCC 25922) (Escherichia coli): >64 µg/mL
- MIC Escherichia coli (GC 4559) (Escherichia coli): 64 µg/mL (≈ 49.2 µM)
- MIC Escherichia coli (GC 4560) (Escherichia coli): 8 µg/mL (≈ 6.15 µM)
- MIC Coagulase Negative Staphylococcus (GC 4547) (Staphylococcus sp.): 16 µg/mL (≈ 12.3 µM)
- MIC Coagulase Negative Staphylococcus (GC 4548) (Staphylococcus sp.): 16 µg/mL (≈ 12.3 µM)
- MIC Coagulase Negative Staphylococcus (GC 4549) (Staphylococcus sp.): 4 µg/mL (≈ 3.07 µM)
- MIC Coagulase Negative Staphylococcus (GC 4551) (Staphylococcus sp.): 64 µg/mL (≈ 49.2 µM)
- MIC Staphylococcus aureus SMITH (GC 4543) (Staphylococcus sp.): 32 µg/mL (≈ 24.6 µM)
- MIC Staphylococcus aureus-SMITH (GC 4543) (Staphylococcus sp.): 32 µg/mL (≈ 24.6 µM)
- MIC Enterococcus avium (GC 4558) (Enterococcus sp.; Enterococcus avium (GC 4558)): 64 µg/mL (≈ 49.2 µM)
- MIC Enterococcus faecalis (ATCC 29212) (Enterococcus sp.; Enterococcus faecalis (ATCC 29212)): >64 µg/mL
- MIC Enterococcus faecalis (GC 2242) (Enterococcus sp.; [1]): 64 µg/mL (≈ 49.2 µM)
- MIC Enterococcus faecalis (GC 2691) (Enterococcus sp.; [2]): >64 µg/mL
- MIC Enterococcus faecalis (GC 3059) (Enterococcus sp.; [3]): >64 µg/mL
- MIC Enterococcus faecalis (GC 4552) (Enterococcus sp.; Enterococcus faecalis (GC 4552)): >64 µg/mL
- MIC Enterococcus faecalis (GC 4553) (Enterococcus sp.; Enterococcus faecalis (GC 4553)): >64 µg/mL
- MIC Enterococcus faecalis (GC 4554) (Enterococcus sp.; Enterococcus faecalis (GC 4554)): >64 µg/mL
- MIC Enterococcus faecalis (GC 6189) (Enterococcus sp.; Enterococcus faecalis (GC 6189)): >64 µg/mL
- MIC Enterococcus faecium (GC 2243) (Enterococcus sp.; Enterococcus faecium (GC 2243)): >64 µg/mL
- MIC Enterococcus faecium (GC 4556) (Enterococcus sp.; Enterococcus faecium (GC 4556)): >64 µg/mL
- MIC Enterococcus faecium (GC 4557) (Enterococcus sp.; Enterococcus faecium (GC 4557)): 16 µg/mL (≈ 12.3 µM)
- MIC Enterococcus avium (GC 4558) (Enterococcus sp.): 64 µg/mL (≈ 49.2 µM)
- MIC Enterococcus faecalis (ATCC 29212) (Enterococcus sp.): >64 µg/mL
- MIC Enterococcus faecalis (GC 2242) (Enterococcus sp.): 64 µg/mL (≈ 49.2 µM)
- MIC Enterococcus faecalis (GC 2691) (Enterococcus sp.): >64 µg/mL
- MIC Enterococcus faecalis (GC 3059) (Enterococcus sp.): >64 µg/mL
- MIC Enterococcus faecalis (GC 4552) (Enterococcus sp.): >64 µg/mL
- MIC Enterococcus faecalis (GC 4553) (Enterococcus sp.): >64 µg/mL
- MIC Enterococcus faecalis (GC 4554) (Enterococcus sp.): >64 µg/mL
- MIC Enterococcus faecalis (GC 6189) (Enterococcus sp.): >64 µg/mL
- MIC Enterococcus faecium (GC 2243) (Enterococcus sp.): >64 µg/mL
- MIC Enterococcus faecium (GC 4556) (Enterococcus sp.): >64 µg/mL
- MIC Enterococcus faecium (GC 4557) (Enterococcus sp.): 16 µg/mL (≈ 12.3 µM)
- MIC Streptococcus agalactiae (GC 4564) (Streptococcus sp.; [4]): 16 µg/mL (≈ 12.3 µM)
- MIC Streptococcus pneumoniae (ATCC 6301) (Streptococcus sp.; [5]): 8 µg/mL (≈ 6.15 µM)
- MIC Streptococcus pneumoniae (GC 1894) (Streptococcus sp.; [6]): 4 µg/mL (≈ 3.07 µM)
- MIC Streptococcus pneumoniae (GC 4565) (Streptococcus sp.; [7]): 8 µg/mL (≈ 6.15 µM)
- MIC Streptococcus pyogenes (GC 4563) (Streptococcus sp.; [8]): 8 µg/mL (≈ 6.15 µM)
- MIC Streptococcus agalactiae (GC 4564) (Streptococcus sp.): 16 µg/mL (≈ 12.3 µM)
- MIC Streptococcus pneumoniae (ATCC 6301) (Streptococcus sp.): 8 µg/mL (≈ 6.15 µM)
- MIC Streptococcus pneumoniae (GC 1894) (Streptococcus sp.): 4 µg/mL (≈ 3.07 µM)
- MIC Streptococcus pneumoniae (GC 4565) (Streptococcus sp.): 8 µg/mL (≈ 6.15 µM)
- MIC Streptococcus pyogenes (GC 4563) (Streptococcus sp.): 8 µg/mL (≈ 6.15 µM)
SMILES: CC(C1CCCCC1)C1NC(=O)CNC(=O)C(CO)NC(=O)C(C(O)C2CNC(=N)N2C2OC(CO)C(O)C(O)C2O)NC(=O)C(C(O)C2CNC(=N)N2)NC(=O)C(Cc2ccc(OC3OC(CO)C(OC4OC(CO)C(O)C(O)C4O)C(O)C3O)cc2)NC1=O (stereo not drawn) [Example 51, Cyclo[3-cyclohexyl-2-aminobutyl-O-(4-O-hexopyranosylhexopyranosyl)tyrosyl-3-(2-iminoimidazolidin-4-yl)seryl-3-(3-hexopyranosyl-2-iminoimidazolidin-4-yl)-serylserylglycyl]] (cyclo(G[ξCha(3ξ-Me)]Y(X2)[ξEnduracididine(βξ-OH,4'ξ)][X1]S); configuration not given here)
- MIC Staphylococcus haemolyticus (GC 4546) (Staphylococcus sp.): 32 µg/mL (≈ 24.6 µM)

- MIC Escherichia coli (GC 4560) (Escherichia coli): 4 µg/mL (≈ 4.14 µM)
- MIC Coagulase Negative Staphylococcus (GC 4547) (Staphylococcus sp.): 2 µg/mL (≈ 2.07 µM)
- MIC Coagulase Negative Staphylococcus (GC 4548) (Staphylococcus sp.): 2 µg/mL (≈ 2.07 µM)
- MIC Coagulase Negative Staphylococcus (GC 4549) (Staphylococcus sp.): 1 µg/mL (≈ 1.03 µM)
- MIC Coagulase Negative Staphylococcus (GC 4551) (Staphylococcus sp.): 2 µg/mL (≈ 2.07 µM)
- MIC Staphylococcus aureus SMITH (GC 4543) (Staphylococcus sp.): 2 µg/mL (≈ 2.07 µM)
- MIC Staphylococcus aureus-SMITH (GC 4543) (Staphylococcus sp.): 2 µg/mL (≈ 2.07 µM)
- MIC Enterococcus faecalis (GC 2242) (Enterococcus sp.; [1]): 8 µg/mL (≈ 8.27 µM)
- MIC Enterococcus faecalis (GC 2691) (Enterococcus sp.; [2]): 8 µg/mL (≈ 8.27 µM)
- MIC Enterococcus faecalis (GC 3059) (Enterococcus sp.; [3]): 8 µg/mL (≈ 8.27 µM)
- MIC Enterococcus avium (GC 4558) (Enterococcus sp.): 4 µg/mL (≈ 4.14 µM)
- MIC Enterococcus faecalis (ATCC 29212) (Enterococcus sp.): 8 µg/mL (≈ 8.27 µM)
- MIC Enterococcus faecalis (GC 2242) (Enterococcus sp.): 8 µg/mL (≈ 8.27 µM)
- MIC Enterococcus faecalis (GC 2691) (Enterococcus sp.): 8 µg/mL (≈ 8.27 µM)
- MIC Enterococcus faecalis (GC 3059) (Enterococcus sp.): 8 µg/mL (≈ 8.27 µM)
- MIC Enterococcus faecalis (GC 4552) (Enterococcus sp.): 8 µg/mL (≈ 8.27 µM)
- MIC Enterococcus faecalis (GC 4553) (Enterococcus sp.): 4 µg/mL (≈ 4.14 µM)
- MIC Enterococcus faecalis (GC 4554) (Enterococcus sp.): 16 µg/mL (≈ 16.5 µM)
- MIC Enterococcus faecalis (GC 6189) (Enterococcus sp.): 4 µg/mL (≈ 4.14 µM)
- MIC Enterococcus faecium (GC 2243) (Enterococcus sp.): 2 µg/mL (≈ 2.07 µM)
- MIC Enterococcus faecium (GC 4556) (Enterococcus sp.): 8 µg/mL (≈ 8.27 µM)
- MIC Enterococcus faecium (GC 4557) (Enterococcus sp.): 2 µg/mL (≈ 2.07 µM)
- MIC Streptococcus agalactiae (GC 4564) (Streptococcus sp.; [4]): 1 µg/mL (≈ 1.03 µM)
- MIC Streptococcus pneumoniae (ATCC 6301) (Streptococcus sp.; [5]): 1 µg/mL (≈ 1.03 µM)
- MIC Streptococcus pneumoniae (GC 1894) (Streptococcus sp.; [6]): 1 µg/mL (≈ 1.03 µM)
- MIC Streptococcus pneumoniae (GC 4565) (Streptococcus sp.; [7]): 4 µg/mL (≈ 4.14 µM)
- MIC Streptococcus pyogenes (GC 4563) (Streptococcus sp.; [8]): 1 µg/mL (≈ 1.03 µM)
- MIC Streptococcus agalactiae (GC 4564) (Streptococcus sp.): 1 µg/mL (≈ 1.03 µM)
- MIC Streptococcus pneumoniae (ATCC 6301) (Streptococcus sp.): 1 µg/mL (≈ 1.03 µM)
- MIC Streptococcus pneumoniae (GC 1894) (Streptococcus sp.): 1 µg/mL (≈ 1.03 µM)
- MIC Streptococcus pneumoniae (GC 4565) (Streptococcus sp.): 4 µg/mL (≈ 4.14 µM)
- MIC Streptococcus pyogenes (GC 4563) (Streptococcus sp.): 1 µg/mL (≈ 1.03 µM)
SMILES: CC(C1CCCCC1)C1NC(=O)CNC(=O)C(CO)NC(=O)C(C(O)C2CNC(=N)N2C2OC(CO)C(O)C(O)C2O)NC(=O)C(C(O)C2CNC(=N)N2)NC(=O)C(CC2CCCCC2)NC1=O (stereo not drawn) [Example 53, Cyclo[3-cyclohexylalanyl-3-(2-iminoimidazolidin-4-yl)seryl-3-(3-hexopyranosyl-2-iminoimidazolidin-4-yl)serylserylglycyl-3-cyclohexyl-2-aminobutanoyl]] (cyclo(G[ξCha(3ξ-Me)][Cha][ξEnduracididine(βξ-OH,4'ξ)][X1]S); configuration not given here)
- MIC Staphylococcus haemolyticus (GC 4546) (Staphylococcus sp.): 1 µg/mL (≈ 1.03 µM)
